The values that follow are results of earlier work, collected in patent US7235556B2, “Methods of treating dry eye disorders” (Alcon, Inc., priority 2003, dated 2007).

In the data set the test system is allergic dermal inflammation. The note with it: guinea pig model of eczema; reported in the background section.

Turning to `CC(C)(C(=O)O)c1cn2nc(NCCCN3CCC(OC(c4ccccc4)c4ccccc4)CC3)ccc2n1.O.O` [TAK-427, 2-[6-[[3-[4-(diphenylmethoxy)piperidino]propyl]amino]imidazo[1,2-b]pyridazin-2-yl]2-methylpropionic acid dihydrate], the “inhibition of allergic dermal inflammation” value is “inhibit allergic dermal inflammation”.
